The target of test [1] is Motilin receptor (Oryctolagus cuniculus, UniProt A5A4K8). In words: Inhibition of the motilin receptor (MTL-R).
The species named for test [2] is Oryctolagus cuniculus. In words: pA2 (Contractile potency) is the negative logarithm of the molar concentration of antagonist causing a 2-fold shift to the right of the concentration response curve for motilin. The note with it: read-out: pA2 (converted). The class given is functional, organism-based.
The species entered for test [3] is Oryctolagus cuniculus. In words: Concentration of compound causing 50% inhibition of the smooth muscle contractile activity. The note with it: Muscle tissue. The class given is functional, organism-based.

Each structure is given as a SMILES string. Several values for one entry are separate records, joined by “and”; a condition that tells them apart may be missing. Equal entries are not always repeated. Bridge positions count the residues as written; N and C are the ends. Square brackets hold non-standard residues; d marks the D form. Peptide text beside a SMILES is read from it. * marks the point of attachment. Tyr(3-tBu) = CC(C)(C)c1cc(C[C@H](N)C(=O)O)ccc1O; Ahx = NCCCCCC(=O)O; GABA = NCCCC(=O)O; βAla = NCCC(=O)O; tBu = CC(C)(C)*

In general, IC50 refers to the concentration needed to halve the response being measured. Low values mean greater potency in that assay, high ones weaker potency in that assay. Broadly, the EC50 is the concentration needed to bring the measured effect to its halfway point. Low readings indicate higher potency in that assay, high ones lower potency in that assay.

Sequence of Motilin receptor (A5A4K8 whole entry): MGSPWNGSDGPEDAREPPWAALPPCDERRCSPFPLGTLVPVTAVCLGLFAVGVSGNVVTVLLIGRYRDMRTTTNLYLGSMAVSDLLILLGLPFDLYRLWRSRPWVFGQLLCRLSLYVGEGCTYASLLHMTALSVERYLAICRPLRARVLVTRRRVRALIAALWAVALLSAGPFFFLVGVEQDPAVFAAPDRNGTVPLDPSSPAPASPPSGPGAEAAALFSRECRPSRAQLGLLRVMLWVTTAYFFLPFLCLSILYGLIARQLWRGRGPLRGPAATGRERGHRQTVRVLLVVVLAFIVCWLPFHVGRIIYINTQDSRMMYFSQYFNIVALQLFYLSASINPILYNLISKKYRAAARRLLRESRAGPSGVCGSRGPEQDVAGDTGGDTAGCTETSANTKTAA

As for `CCC(C)Oc1ccc(C[C@@H]2NC(=O)[C@@H](NC(=O)[C@@H](N)Cc3ccccc3)CCCCNC(=O)CCNC2=O)cc1` (stereo not given in full), in test [1], the IC50 was determined as 480 nM.
On to `CC(C)(C)c1cc(C[C@H]2NC(=O)[C@@H](NC(=O)[C@@H](N)Cc3ccccc3)CCCCNC(=O)CCNC2=O)ccc1O`, for which the Kb in test [2] is 5370 nM. Moreover, the EC50 in test [3] is > 100000 nM. The same compound showed an IC50 in test [1] of 3100 nM.
As for `CC(C)(C)c1cc(C[C@@H]2NC(=O)[C@@H](NC(=O)[C@@H](N)Cc3ccccc3)CCCCNC(=O)CNC2=O)ccc1O` (H-FK[Tyr(3-tBu)]G; lactam 2-C), the Kb in test [2] is 46.8 nM. Moreover, in test [3], the EC50 is > 100000 nM. Further, in test [1], the IC50 is 7 nM and 33 nM.
Turning to `CC(C)(C)Oc1ccc(C[C@@H]2NC(=O)[C@@H](NC(=O)[C@@H](N)Cc3ccccc3)CCCCNC(=O)CCNC2=O)cc1` (H-FKY(tBu)[βAla]; lactam 2-C), the Kb in test [2] was 120000 nM. The EC50 in test [3] is > 100000 nM. In test [1], this compound yielded an IC50 of 7500 nM.
Consider `CC(C)(C)c1cc(C[C@@H]2NC(=O)[C@@H](NC(=O)[C@@H](N)Cc3ccccc3)CCCCNC(=O)CCCCCNC2=O)ccc1O` (H-FK[Tyr(3-tBu)][Ahx]; lactam 2-C), for which the Kb in test [2] is 83.2 nM. Further, in test [3], the EC50 is > 100000 nM. For the same compound, the IC50 in test [1] was 17 nM and 65 nM.
On to `N[C@@H](Cc1ccccc1)C(=O)N[C@H]1CCCCNC(=O)CCNC(=O)[C@H](Cc2ccc(O)cc2)NC1=O` (H-FKY[βAla]; lactam 2-C), for which the Kb in test [2] is 89100 nM. For the same compound, the EC50 in test [3] was > 100000 nM. The half-maximal inhibitory concentration (IC50) in test [1] is 25000 nM and 42000 nM.
On to `CC(C)(C)c1cc(C[C@@H]2NC(=O)[C@@H](NC(=O)C(N)Cc3ccccc3)CCCCNC(=O)CCNC2=O)ccc1O` (single isomer, unassigned), for which, in test [2], the Kb is 2000 nM. Further, the EC50 in test [3] was > 100000 nM. The compound further registered an IC50 in test [1] of 1800 nM.
With `CC(C)(C)c1cc(C[C@@H]2NC(=O)[C@@H](NC(=O)[C@@H](N)Cc3ccccc3)CCCCNC(=O)CCCNC2=O)ccc1O` (H-FK[Tyr(3-tBu)][GABA]; lactam 2-C), in test [2], the Kb was 34.7 nM. Also, in test [3], the EC50 is > 100000 nM. The IC50 in test [1] is 33 nM and 59 nM.
For `CC(C)(C)c1cc(CC2NC(=O)[C@@H](NC(=O)C(N)Cc3ccccc3)CCCCNC(=O)CCNC2=O)ccc1O` (stereo not given in full), the Kb in test [2] is 2190 nM. Besides, in test [3], the EC50 is > 100000 nM. The same compound gave an IC50 in test [1] of 2100 nM.
Regarding `CC(C)(C)c1cc(C[C@@H]2NC(=O)[C@@H](NC(=O)[C@@H](N)Cc3ccccc3)CCCCNC(=O)CCNC2=O)cc(C(C)(C)C)c1O`, the EC50 in test [3] was > 10000 nM. Further, inhibition in test [1] was half-maximal at 460 nM (IC50).
Regarding `CC(C)(C)c1cc(C[C@@H]2NC(=O)[C@@H](NC(=O)[C@@H](N)Cc3ccccc3)CCCCNC(=O)CCNC2=O)ccc1O`, the Kb in test [2] is 42.7 nM. The EC50 in test [3] is > 100000 nM. In test [1], this compound displayed an IC50 of 10 nM.

For the origin of these results see ChEMBL document CHEMBL1135706, “Design and synthesis of motilin antagonists derived from the [1-4] fragment of porcine motilin” (J Med Chem, 2002).
